Experimental data published in US20160178605A1, “Electrical Cell-substrate Impedance Sensor (ECIS)” (priority 2015, published 2016).

System: MCF-7 cells
Assay: SiNW-ECIS impedance and capacitance response of MCF-7 cells to antitubulin drugs
Type: cell-based, human
Details: PTX 0.1 nano-moles per liter; for normalized capacitance change (ΔC %) vs control sample / normalized impedance change (ΔZ %) vs control sample: MCF-7, 2 hours (T1) after drug incubation; for normalized capacitance change (ΔC %) vs control sample / normalized impedance change (ΔZ %) vs control sample / change in norm of impedance of treated cells between T1 and T2 / norm of capacitive changes, control sample more than drug treated values: ABZ 2.1 nano-moles per liter; for normalized impedance change (ΔZ %) vs control sample: mean; for norm of capacitive changes, control sample more than drug treated values: MCF-7, 6 hours (T2) after drug incubation
Description: In this example, the diagnostic response of cells membrane to extremely low dose of antitubulin drugs is investigated. Initially, MCF-7 cell lines, isolated from grade I human breast tumors, were obtained from the National Cell Bank of Iran (Pasteur Institute). Then, cells were maintained in a CO2 incubator (37° C., 5% CO2) in RPMI-1640 medium supplemented with 5% fetal bovine serum, and 1% penicillin/streptomycin. The fresh medium was replaced every other day. Then, the cultured cells were dropped on the surface of the SiNW-ECIS, designed and fabricated pursuant to teachings of the present application. Prior to each experiment, cells were trypsinized to be detached from the substrate and resuspended on the SiNW surface. To minimize the effect of trypsinization, the procedure may last for less than 4 minutes at room temperature of about 20° C. The samples were held in an incubator for about 4 hours to achieve cells attachment on the SiNWs. Thereafter, the ABZ drug with low concentrations of about 2.1 nano-moles per liter and the PTX drug with low concentrations of about 0.1 nano-moles per liter were added to individual samples. Finally, the signal recording and biological assays were investigated about 2 hours and 6 hours after the drug treatment (6 hours and 10 hours after the beginning of culturing process).
Referring to FIGS. 12A-12G, comparative normalized diagrams of impedance (designated by ΔZ % and represented by solid black lines) and capacitance changes (designated by ΔC % and represented by dashed grey lines) are illustrated for MCF-7 cells seeded on SiNW electrodes after treating by 2.1 nano-moles per liter of ABZ and 0.1 nano-moles per liter of PTX. The time interval between the drug incubation and the signal extraction are 2 hours (designated by T1) and 6 hours (designated by T2). In addition, the same diagrams are plotted for control sample prepared with no drug treatment stage.
According to the method described in the present example, the samples were maintained in an incubator so that the signal extraction was repeated 10 hours after cells dropping (6 hours after drug incubation for treated samples) to monitor the time evolution of drug induced MT polymerization/depolymerization on bioelectrical response of the membrane.

[1] = MCF-7, 2 hours (T1) vs 6 hours (T2) after drug incubation

SMILES | normalized capacitance change (ΔC %) vs control sample | normalized impedance change (ΔZ %) vs control sample | change in norm of impedance of treated cells between T1 and T2 [1] | norm of capacitive changes, control sample more than drug treated values | time dependent variation in capacitive behavior between T1 and T2 [1]
CCCSc1ccc2nc(NC(=O)OC)[nH]c2c1 [ABZ, Albendazole] | 70% | 25% | about 60% | about 90% | 
CC(=O)O[C@H]1C(=O)[C@@]2(C)[C@H]([C@H](OC(=O)c3ccccc3)[C@]3(O)C[C@H](OC(=O)[C@H](O)[C@@H](NC(=O)c4ccccc4)c4ccccc4)C(C)=C1C3(C)C)[C@]1(OC(C)=O)CO[C@@H]1C[C@@H]2O [PTX, Paclitaxel] | about 60% | about 50% | 15% | ~75% | about 85%
